A short description of experiment [1]: HPLC assay for solution reactivity of sulfonyl triazole fragments with p-cresol. It counts as physicochemical. The note with it: for time to completion of reaction with p-cresol: TMG 1.1 equivalents, on ice; for solution reactivity with p-cresol: HPLC assay, TMG base. The method, then: HPLC Assay for Profiling Solution Reactivity and Stability of Sulfonyl Triazole Fragments
The following reagents were prepared and stored on ice prior to use. 0.1 M solution of caffeine in acetonitrile, 1.0 M solution of n-butylamine, p-cresol, tetramethylguanidine […], 1 M HOAc in ACN and 10 mM solution of SuTEx fragment in DMF-ACN mixture (10:90, v/v). 500 μL of fragment solution was transferred to a dram vial on ice. To the mixture, 5.5 μL of TMG and 5.5 μL of p-cresol or n-butylamine was added and solutions were stirred on ice for 6 h. To monitor reactivity, 50 μL aliquots were removed at indicated time points and quenched with 10 μL of a 1:1 mixture of caffeine and HOAc. Samples were injected (1 μL) and analyzed by reverse-phase HPLC on a Shimadzu 1100 Series spectrometer (Shimadzu, Kyoto, Japan) with UV detection at 254 nm. Reaction progress was evaluated by monitoring consumption of starting material (SuTEx fragment) normalized to caffeine standard. Chromatographic separation was performed using a Phenomenex Kinetex C18 column (2.6 μm, 50×4.6 mm) (Phenomenex, Torrance, California, United States of America). Mobile phases A and B were composed of H2O+0.1% HOAc and ACN+0.1% HOAc, respectively. Samples were analyzed using the following analytical conditions: using a flow rate of 0.8 ml min^−1, the gradient was as follows: 0-0.5 min, 15% B; 0.5-6.5 min 85% B; 6.5-7 min 100% B: 7-8.5 min 100% B; 8.5-9 min 15% B; 9-9.8 min 15% B.

Experiment [2] relates to HEK293T soluble proteomes. As to the kind of experiment: LC-MS chemical proteomics of probe-modified sites in cell proteomes. The note with it: for unique-modified tyrosine sites among 1,2,4-SuTEx probes: FIG. 4D; for tyrosine specificity, Y/K ratio of modified sites: LC-MS chemical proteomics. It counts as binding, human. The method, then: Proteomes were diluted to 2.3 mg/mL in PBS and sample aliquots (432 μL) were treated with sulfonyl-triazole or -fluoride probes at the indicated concentrations (5 μL, 100× stock in DMSO), mixed gently and incubated for 1 h at room temperature. Probe-modified proteomes were subjected to CuAAC conjugation to desthiobiotin-PEG3-azide (10 μL of 10 mM stock in DMSO; final concentration of 200 μM) using TCEP (10 μL of fresh 50 mM stock in water; 1 mM final concentration), TBTA ligand (33 μL of a 1.7 mM 4:1 t-butanol/DMSO stock, 100 μM final concentration), and CuSO4 (10 μL of 50 mM stock, 1 mM final concentration). Samples were mixed by vortexing and then incubated for 1 h at room temperature. Excess reagents were removed by chloroform-methanol extraction as previously described^51. Protein pellets were re-suspended in 500 μL of 6M urea/25 mM ammonium bicarbonate followed by DTT reduction and IAA alkylation as previously described^5. Excess reagents were removed by chloroform/methanol extraction as described above, and the protein pellet was re-suspended in 500 μL of 25 mM ammonium bicarbonate and then digested to peptides using trypsin/Lys-C (7.5 μg in 15 μL of ammonium bicarbonate, sequencing grade from Promega, Madison, Wisconsin, United States of America) was added to the mixture and incubated for 3 hrs at 37° C. Probe-modified peptides were enriched by avidin affinity chromatography, eluted, and prepared for LC-MS analysis as previously described^51.
A top 10 data-dependent acquisition MS method was used.
Sulfonyl-probe modifications of tyrosine, lysine, and other amino acids were included as a variable (common) modification of +635.27374 Da. […] A Byonic score of 300 was applied for a more inclusive initial evaluation of the search results and thereby consider more possible probe-modified sites. MS1 and MS2 spectra corresponding to the highest-scoring tyrosine- and lysine (internal or non-C terminal)-modified sequences (˜50-100 peptides) were manually verified. […] Distinct peptides containing probe-modified amino acid residues (termed sites) were determined by identifying all unique razor protein and site combinations across all of the proteomes tested.
To compare amino acid residues modified by sulfonyl probes, protein and peptide identifications were accomplished as described above with variable (common) modification of +635.27374 Da on the following amino acid residues: cysteine, aspartic acid, glutamic acid, histidine, lysine, methionine, asparagine, glutamine, arginine, serine, threonine, tryptophan, and tyrosine. For these amino acid comparisons, carbamidomethylation (+57.021464 Da) of cysteines was searched as a variable/common modification to allow for the potential of probe modification on cysteines. Comparisons of probe-modified sites across all probes and cell lines tested were performed using the R package ggplot2 (online at tidyverse.org). Venn diagrams for comparisons were generated using the VennDiagram R package^52.
Proteomes were digested with trypsin protease and desthiobiotin-modified peptides enriched by avidin affinity chromatography, released, and analyzed by high-resolution liquid chromatography-mass spectrometry (LC-MS). Probe-modified peptide-spectrum matches (PSMs) that met a quality control confidence criteria of ≥300 Byonic score^31 and ≤5 ppm mass accuracy were selected for further manual evaluation.

For experiment [3], the target named is T1, human DPP3 (hDPP3) (Homo sapiens, UniProt Q9NY33).
T1 construct: FLAG (C); host or cells: HEK293T, transient transfection; soluble proteome used unpurified
T1 sequence (Q9NY33 1-737): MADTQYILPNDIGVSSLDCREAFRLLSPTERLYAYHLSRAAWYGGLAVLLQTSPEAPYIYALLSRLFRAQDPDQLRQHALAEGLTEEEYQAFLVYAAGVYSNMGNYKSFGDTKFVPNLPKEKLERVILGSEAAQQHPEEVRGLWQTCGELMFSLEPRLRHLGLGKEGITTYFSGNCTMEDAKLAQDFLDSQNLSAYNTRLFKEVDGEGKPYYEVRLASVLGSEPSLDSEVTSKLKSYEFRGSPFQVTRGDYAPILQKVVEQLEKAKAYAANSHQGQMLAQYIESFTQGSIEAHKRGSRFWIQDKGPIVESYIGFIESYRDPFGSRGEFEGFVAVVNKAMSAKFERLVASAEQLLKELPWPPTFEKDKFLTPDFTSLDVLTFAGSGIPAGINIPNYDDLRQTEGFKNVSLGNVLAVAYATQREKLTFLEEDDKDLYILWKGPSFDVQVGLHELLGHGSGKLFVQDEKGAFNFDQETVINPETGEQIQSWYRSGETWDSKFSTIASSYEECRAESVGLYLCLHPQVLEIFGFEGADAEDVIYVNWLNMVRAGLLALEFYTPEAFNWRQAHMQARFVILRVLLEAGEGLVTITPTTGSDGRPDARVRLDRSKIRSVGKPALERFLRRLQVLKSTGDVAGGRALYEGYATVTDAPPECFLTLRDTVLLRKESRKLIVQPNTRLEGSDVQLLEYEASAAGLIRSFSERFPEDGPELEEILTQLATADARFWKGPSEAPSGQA
The experiment is described as follows: Gel-based competitive chemical proteomic screen with HHS-482, recombinant hDPP3-HEK293T soluble proteomes. It counts as binding. The settings on record: 50 μM fragment, 37° C., 30 min. The method, then:
Gel-Based Chemical Proteomic Assay
Cell pellets were lysed in PBS and fractionated (100,000×g, 45 min, 4° C.) to generate soluble and membrane fractions. Protein concentrations were determined using Bio-Rad DC protein assay (Bio-Rad Laboratories, Inc., Hercules, California, United States of America), and adjusted to 1 mgml^−1 in PBS. Proteome samples (49 μl aliquots) were treated with DMSO vehicle or indicated concentration of SuTEx fragment (1 μL, 50× stock in DMSO) for 30 min at 37° C. Samples were then treated with HHS-482 probe (1 μL, 2.5 mM stock in DMSO) for 30 min at 37° C. Probe labeled samples were conjugated to rhodamine-azide (1 μL, 1.25 mM stock; final concentration of 25 μM) by copper-catalyzed azide-alkyne cycloadditions (CuAAC) for 1 h at room temperature followed by SDS-PAGE and in-gel fluorescence scanning as previously described^57.

Experiment [4] relates to DM93 soluble proteomes. As to the kind of experiment: Proteome-wide competitive chemical proteomics of SuTEx fragments vs HHS-482. It counts as binding, human. The note with it: fragment 50 μM, 30 min, 37° C. The method, then: Heavy and light proteomes (432 μl of each) were diluted to 2.3 mg ml^−1 in PBS and sample aliquots (432 μl) were treated with SuTEx fragment at the indicated concentrations (5 μl, 100× stock in DMSO), mixed gently and incubated for 30 min at 37° C. Samples were then treated with HHS-482 (5 μL, 5 mM stock in DMSO) for 30 min at 37° C. Probe-modified proteomes were conjugated to desthiobiotin-PEG3-azide followed by enrichment of probe-modified peptides for nano-electrospray ionization-LC-MS/MS analyses as previously described^57.
The chemical proteomic method for functional tyrosine profiling^72 was tailored to investigate AG/LG effects on SuTEx fragment reactivity in complex proteomes. In brief, isotopically light and heavy soluble proteomes from DM93 melanoma cells cultured by stable isotopic labeling by amino acids in cell culture (SILAC^80) media were used for quantitative liquid chromatography-mass spectrometry (LC-MS) studies. Light and heavy DM93 proteomes were treated with dimethyl sulfoxide (DMSO) vehicle or SuTEx fragment (50 μM, 30 min, 37° C.), respectively, followed by labeling with the tyrosine-reactive probe HHS-482 described hereinabove (50 μM, 30 min, 37° C.) and copper-catalyzed azide-alkyne cycloaddition (CuAAC) conjugation of a desthiobiotin-azide enrichment tag. Proteomes were digested with trypsin protease, HHS-482-modified peptides enriched by avidin chromatography and analyzed by high-resolution LC-MS/MS and bioinformatics as described hereinabove.
To evaluate substituent effects on proteome activity, reactivity profiles of each respective SuTEx fragment were compared across >1500 total distinct HHS-482-modified tyrosine sites from >650 detected proteins. Fragments were screened across independent biological replicates (n=2-3) and high-quality tyrosine site annotations were identified by detection in at least a single biological replicate from each fragment dataset, probe-specific enrichment (HHS-482 probe/DMSO SILAC ratio (SR)>5), and quality control confidence criteria of ≥300 Byonic score^31, […] protein false discovery rate (FDR), and ≤5 ppm mass accuracy in order to minimize the potential for false positives^72. SILAC ratios (SR) from competitive studies (Light-DMSO/Heavy-fragment) were used to identify fragment-competed tyrosine residues as sites showing >75% reduction in enrichment by HHS-482 compared with DMSO vehicle control (i.e. liganded tyrosines, SR>4). In total, 305 liganded tyrosines on 213 distinct proteins were identified, corresponding to ˜30% and ˜44% of total quantified tyrosines and proteins, respectively. […]

`COc1ccc(-c2ncn(S(=O)(=O)c3cccnc3)n2)cc1` [JWB141, 3-((3-(4-Methoxyphenyl)-1H-1,2,4-triazol-1-yl)sulfonyl)pyridine]: the “time to completion of reaction with p-cresol” value in experiment [1] is approximately 30 min. Same read-out and setting: for `COc1ccc(-c2ncn(S(=O)(=O)c3ccc(C#N)cc3)n2)cc1` [JWB137, 4-((3-(4-Methoxyphenyl)-1H-1,2,4-triazol-1-yl)sulfonyl)benzonitrile] the value was approximately 5 min. For `C#CCNC(=O)c1ccc(S(=O)(=O)n2cnc(-c3ccc(F)cc3)n2)cc1` [HHS-483, 4-((3-(4-Fluorophenyl)-1H-1,2,4-triazol-1-yl)sulfonyl)-N-(prop-2-yn-1-yl)benzamide], the “proteome reactivity and tyrosine specificity compared with HHS-481” value in experiment [2] (FIG. 4A) is “comparable reactivity and slightly lowered tyrosine specificity”. Further, in experiment [2], the “unique-modified tyrosine sites among 1,2,4-SuTEx probes” value worked out at 433 sites. With `COc1ccc(-c2ncn(S(=O)(=O)c3ccc(F)cc3)n2)cc1` [JWB135, 1-((4-Fluorophenyl)sulfonyl)-3-(4-methoxyphenyl)-1H-1,2,4-triazole], in experiment [1], the “solution reactivity with p-cresol” value is listed as “attenuated reactivity”. With `C#CCNC(=O)c1ccc(S(=O)(=O)n2cnc(-c3ccc(OC)cc3)n2)cc1` [HHS-482, 4-((3-(4-Methoxyphenyl)-1H-1,2,4-triazol-1-yl)sulfonyl)-N-(prop-2-yn-1-yl)benzamide], in experiment [2] (FIG. 4A), the “total number of probe-modified sites (Y and K combined)” value is recorded as ~3,000 sites; the “tyrosine specificity, Y/K ratio of modified sites” value was approximately 5. For the same molecule, the “unique-modified tyrosine sites among 1,2,4-SuTEx probes” value in experiment [2] was determined as 112 sites. Moreover, the “fraction of probe-modified residues/peptides assigned to tyrosines” value in experiment [2] (high confidence sites) was approximately 75%.

For `O=S(=O)(c1ccc(-c2ccccc2)cc1)n1cnc(-c2ccncc2)n1` [JWB202, 4-(1-([1,1′-Biphenyl]-4-ylsulfonyl)-1H-1,2,4-triazol-3-yl)pyridine], the “blockade of DPP3 probe (HHS-482) labeling” value in experiment [3] was approximately 50%. With `C#CCNC(=O)c1ccc(S(=O)(=O)n2cnc(-c3ccccc3)n2)cc1` [HHS-481, 4-((3-Phenyl-1H-1,2,4-triazol-1-yl)sulfonyl)-N-(prop-2-yn-1-yl)benzamide], in experiment [2] (FIG. 4A), the “total number of probe-modified sites (Y and K combined)” value is listed as ~4,000 sites; the “tyrosine specificity, Y/K ratio of modified sites” value came out at 3.5. In addition, the “unique-modified tyrosine sites among 1,2,4-SuTEx probes” value in experiment [2] was 445 sites. With `O=S(=O)(c1ccc(F)cc1)n1cnc(-c2ccc(C(F)(F)F)cc2)n1` [JWB150, 1-((4-Fluorophenyl)sulfonyl)-3-(4-(trifluoromethyl)phenyl)-1H-1,2,4-triazole], the “liganded tyrosine frequency (SR>4)” value in experiment [4] is given as more than 25%. The “competition against recombinant DPP3” value in experiment [3] (also substantial proteome cross-reactivity) was “potent competition”. Moreover, in experiment [1], the “solution reactivity with p-cresol” value is given as “comparable reaction”. For `COc1ccc(-c2ncn(S(=O)(=O)c3ccc(OC)cc3)n2)cc1` [JWB136, 3-(4-Methoxyphenyl)-1-((4-methoxyphenyl)sulfonyl)-1H-1,2,4-triazole], the “solution reactivity with p-cresol” value in experiment [1] was “incomplete reaction”.

Source of the values: patent publication US12366579B2, “Sulfur-heterocycle exchange chemistry and uses thereof” (University of Virginia Patent Foundation, priority 2019, dated 2025).
